Source: patent publication US8802597B2, “Herbicidal pyrimidines” (E I du Pont de Nemours and Company, priority 2003, dated 2014)

Columns and labels:
Assay type in all cases: in vivo
[1] = test system: Surinam grass (Brachiaria decumbens); assay: Test B pre/postemergence; conditions: for Surinam Grass plant response rating: Postemergence; for Plant response rating, Surinam Grass: Preemergence
In short: (§1)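 Compounds in non-phytotoxic solvent with surfactant applied preemergence to planted seeds or postemergence to plants 2 to 18 cm tall (1- to 4-leaf stage). Greenhouse 13 to 15 days, then visual rating against controls on a 0 to 100 scale (100 = complete control).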

[2] = test system: barnyardgrass (Echinochloa crus-galli); assay: Test B pre/postemergence; conditions: for Barnyardgrass plant response rating: Postemergence; for Plant response rating, Barnyardgrass: Preemergence
In short: as §1

[3] = test system: cocklebur (Xanthium strumarium); assay: Test B pre/postemergence; conditions: for Cocklebur plant response rating: Postemergence; for Plant response rating, Cocklebur: Preemergence
In short: as §1

corn (Zea mays) = assay: Test B pre/postemergence; conditions: for Corn plant response rating: Postemergence; for Plant response rating, Corn: Preemergence
In short: as §1

[4] = test system: crabgrass (Digitaria sanguinalis); assay: Test B pre/postemergence; conditions: for Crabgrass plant response rating: Postemergence; for Plant response rating, Crabgrass: Preemergence
In short: as §1

[5] = test system: giant foxtail (Setaria faberii); assay: Test B pre/postemergence; conditions: for Foxtail, Giant plant response rating: Postemergence; for Plant response rating, Foxtail, Giant: Preemergence
In short: as §1

[6] = test system: lambsquarters (Chenopodium album); assay: Test B pre/postemergence; conditions: for Lambsquarters plant response rating: Postemergence; for Plant response rating, Lambsquarters: Preemergence
In short: as §1

[7] = test system: morningglory (Ipomoea coccinea); assay: Test B pre/postemergence; conditions: for Morningglory plant response rating: Postemergence; for Plant response rating, Morningglory: Preemergence
In short: as §1

[8] = test system: pigweed (Amaranthus retroflexus); assay: Test B pre/postemergence; conditions: for Pigweed plant response rating: Postemergence; for Plant response rating, Pigweed: Preemergence
In short: as §1

[9] = test system: velvetleaf (Abutilon theophrasti); assay: Test B pre/postemergence; conditions: for Velvetleaf plant response rating: Postemergence; for Plant response rating, Velvetleaf: Preemergence
In short: as §1

[10] = test system: wheat (Triticum aestivum); assay: Test B pre/postemergence; conditions: for Wheat plant response rating: Postemergence; for Plant response rating, Wheat: Preemergence
In short: as §1

[11] = test system: blackgrass (Alopecurus myosuroides); assay: Test B postemergence; conditions: scale 0 to 100 (0 no effect, 100 complete control)
In short: as §1

wild oat (Avena fatua) = assay: Test B postemergence; conditions: scale 0 to 100 (0 no effect, 100 complete control)
In short: as §1

[12] = test system: barnyardgrass (Echinochloa crus-galli); assay: Test B flooded paddy test; conditions: Flood, scale 0 to 100
In short: (§2)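 Rice, umbrella sedge, duck salad and barnyardgrass grown to 2-leaf stage under flooded paddy conditions and treated with formulated test chemicals. Kept in greenhouse 13–15 days, then visually rated against untreated controls on a 0–100 scale (0 no effect, 100 complete control).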

[13] = test system: duck salad (Heteranthera limosa); assay: Test B flooded paddy test; conditions: Flood, scale 0 to 100
In short: as §2

rice (Oryza sativa) = assay: Test B flooded paddy test; conditions: Flood, scale 0 to 100
In short: as §2

[14] = test system: umbrella sedge (Cyperus difformis); assay: Test B flooded paddy test; conditions: Flood, scale 0 to 100
In short: as §2

[15] = 62 g ai/ha, scale 0 to 100 (0 no effect, 100 complete control)
[16] = 125 g ai/ha, scale 0 to 100 (0 no effect, 100 complete control)
[17] = 62 g ai/ha, scale 0 to 100, 0 no effect, 100 complete control

Structure (SMILES): CCOC(=O)c1nc(-c2ccc(I)cc2)nc(N)c1Cl [Compound 133]
- Surinam Grass plant response rating [1, 15]: 60
- Surinam Grass plant response rating [1, 16]: 70
- Plant response rating, Surinam Grass [1, 17]: 0
- Plant response rating, Surinam Grass [1, 16]: 10
- Barnyardgrass plant response rating [2, 15]: 70
- Barnyardgrass plant response rating [2, 16]: 70
- Plant response rating, Barnyardgrass [2, 17]: 30
- Plant response rating, Barnyardgrass [2, 16]: 30
- Cocklebur plant response rating [3, 15]: 100
- Cocklebur plant response rating [3, 16]: 100
- Plant response rating, Cocklebur [3, 17]: 20
- Plant response rating, Cocklebur [3, 16]: 50
- Corn plant response rating (corn (Zea mays); [15]): 70
- Corn plant response rating (corn (Zea mays); [16]): 80
- Plant response rating, Corn (corn (Zea mays); [17]): 0
- Plant response rating, Corn (corn (Zea mays); [16]): 0
- Crabgrass plant response rating [4, 15]: 60
- Crabgrass plant response rating [4, 16]: 70
- Plant response rating, Crabgrass [4, 17]: 40
- Plant response rating, Crabgrass [4, 16]: 70
- Foxtail, Giant plant response rating [5, 15]: 60
- Foxtail, Giant plant response rating [5, 16]: 70
- Plant response rating, Foxtail, Giant [5, 17]: 0
- Plant response rating, Foxtail, Giant [5, 16]: 20
- Lambsquarters plant response rating [6, 15]: 100
- Lambsquarters plant response rating [6, 16]: 100
- Plant response rating, Lambsquarters [6, 16]: 70
- Morningglory plant response rating [7, 15]: 70
- Morningglory plant response rating [7, 16]: 100
- Plant response rating, Morningglory [7, 17]: 0
- Plant response rating, Morningglory [7, 16]: 0
- Pigweed plant response rating [8, 15]: 90
- Pigweed plant response rating [8, 16]: 100
- Plant response rating, Pigweed [8, 17]: 70
- Plant response rating, Pigweed [8, 16]: 80
- Velvetleaf plant response rating [9, 15]: 90
- Velvetleaf plant response rating [9, 16]: 100
- Plant response rating, Velvetleaf [9, 17]: 50
- Plant response rating, Velvetleaf [9, 16]: 60
- Wheat plant response rating [10, 15]: 0
- Wheat plant response rating [10, 16]: 50
- Plant response rating, Wheat [10, 17]: 50
- Plant response rating, Wheat [10, 16]: 60
- Blackgrass plant response rating ([11]; 62 g ai/ha): 60
- Blackgrass plant response rating ([11]; 125 g ai/ha): 70
- Oat, Wild plant response rating (wild oat (Avena fatua); 62 g ai/ha): 40
- Oat, Wild plant response rating (wild oat (Avena fatua); 125 g ai/ha): 60
- Plant response rating, Barnyardgrass ([12]; 125 g ai/ha): 0
- Plant response rating, Barnyardgrass ([12]; 500 g ai/ha): 0
- Plant response rating, Ducksalad ([13]; 125 g ai/ha): 90
- Plant response rating, Ducksalad ([13]; 500 g ai/ha): 90
- Plant response rating, Rice (rice (Oryza sativa); 125 g ai/ha): 0
- Plant response rating, Rice (rice (Oryza sativa); 500 g ai/ha): 0
- Plant response rating, Sedge, Umbrella ([14]; 125 g ai/ha): 90
- Plant response rating, Sedge, Umbrella ([14]; 500 g ai/ha): 90

Structure (SMILES): Nc1nc(C2CC2)nc(C(=O)O)c1Cl [Compound 135, 6-amino-5-chloro-2-cyclopropyl-4-pyrimidinecarboxylic acid]
- Surinam Grass plant response rating [1, 15]: 80
- Surinam Grass plant response rating [1, 16]: 80
- Plant response rating, Surinam Grass [1, 17]: 80
- Plant response rating, Surinam Grass [1, 16]: 90
- Barnyardgrass plant response rating [2, 15]: 70
- Barnyardgrass plant response rating [2, 16]: 90
- Plant response rating, Barnyardgrass [2, 17]: 70
- Plant response rating, Barnyardgrass [2, 16]: 90
- Cocklebur plant response rating [3, 15]: 100
- Cocklebur plant response rating [3, 16]: 100
- Plant response rating, Cocklebur [3, 17]: 100
- Plant response rating, Cocklebur [3, 16]: 100
- Corn plant response rating (corn (Zea mays); [15]): 50
- Corn plant response rating (corn (Zea mays); [16]): 80
- Plant response rating, Corn (corn (Zea mays); [17]): 50
- Plant response rating, Corn (corn (Zea mays); [16]): 80
- Crabgrass plant response rating [4, 15]: 60
- Crabgrass plant response rating [4, 16]: 70
- Plant response rating, Crabgrass [4, 17]: 80
- Plant response rating, Crabgrass [4, 16]: 90
- Foxtail, Giant plant response rating [5, 15]: 80
- Foxtail, Giant plant response rating [5, 16]: 80
- Plant response rating, Foxtail, Giant [5, 17]: 60
- Plant response rating, Foxtail, Giant [5, 16]: 90
- Lambsquarters plant response rating [6, 15]: 100
- Lambsquarters plant response rating [6, 16]: 100
- Plant response rating, Lambsquarters [6, 17]: 100
- Plant response rating, Lambsquarters [6, 16]: 100
- Morningglory plant response rating [7, 15]: 100
- Morningglory plant response rating [7, 16]: 100
- Plant response rating, Morningglory [7, 17]: 100
- Plant response rating, Morningglory [7, 16]: 100
- Pigweed plant response rating [8, 15]: 100
- Pigweed plant response rating [8, 16]: 100
- Plant response rating, Pigweed [8, 17]: 100
- Plant response rating, Pigweed [8, 16]: 100
- Velvetleaf plant response rating [9, 15]: 100
- Velvetleaf plant response rating [9, 16]: 100
- Plant response rating, Velvetleaf [9, 17]: 90
- Plant response rating, Velvetleaf [9, 16]: 100
- Wheat plant response rating [10, 15]: 40
- Wheat plant response rating [10, 16]: 60
- Plant response rating, Wheat [10, 17]: 70
- Plant response rating, Wheat [10, 16]: 90
- Blackgrass plant response rating ([11]; 62 g ai/ha): 60
- Blackgrass plant response rating ([11]; 125 g ai/ha): 70
- Oat, Wild plant response rating (wild oat (Avena fatua); 62 g ai/ha): 60
- Oat, Wild plant response rating (wild oat (Avena fatua); 125 g ai/ha): 60
- Plant response rating, Barnyardgrass ([12]; 125 g ai/ha): 30
- Plant response rating, Barnyardgrass ([12]; 500 g ai/ha): 80
- Plant response rating, Ducksalad ([13]; 125 g ai/ha): 60
- Plant response rating, Ducksalad ([13]; 500 g ai/ha): 90
- Plant response rating, Rice (rice (Oryza sativa); 125 g ai/ha): 20
- Plant response rating, Rice (rice (Oryza sativa); 500 g ai/ha): 60
- Plant response rating, Sedge, Umbrella ([14]; 125 g ai/ha): 70
- Plant response rating, Sedge, Umbrella ([14]; 500 g ai/ha): 80

Structure (SMILES): Nc1nc(-c2ccc(Br)cc2)nc(C(=O)O)c1Br [Compound 136]
- Surinam Grass plant response rating [1, 15]: 70
- Surinam Grass plant response rating [1, 16]: 80
- Plant response rating, Surinam Grass [1, 17]: 10
- Plant response rating, Surinam Grass [1, 16]: 50
- Barnyardgrass plant response rating [2, 15]: 70
- Barnyardgrass plant response rating [2, 16]: 90
- Plant response rating, Barnyardgrass [2, 17]: 30
- Cocklebur plant response rating [3, 15]: 90
- Cocklebur plant response rating [3, 16]: 100
- Plant response rating, Cocklebur [3, 17]: 40
- Plant response rating, Cocklebur [3, 16]: 70
- Corn plant response rating (corn (Zea mays); [15]): 40
- Corn plant response rating (corn (Zea mays); [16]): 70
- Plant response rating, Corn (corn (Zea mays); [17]): 0
- Plant response rating, Corn (corn (Zea mays); [16]): 0
- Crabgrass plant response rating [4, 15]: 70
- Crabgrass plant response rating [4, 16]: 80
- Plant response rating, Crabgrass [4, 17]: 70
- Plant response rating, Crabgrass [4, 16]: 80
- Foxtail, Giant plant response rating [5, 15]: 60
- Foxtail, Giant plant response rating [5, 16]: 70
- Plant response rating, Foxtail, Giant [5, 17]: 10
- Plant response rating, Foxtail, Giant [5, 16]: 50
- Lambsquarters plant response rating [6, 15]: 100
- Lambsquarters plant response rating [6, 16]: 100
- Plant response rating, Lambsquarters [6, 17]: 90
- Plant response rating, Lambsquarters [6, 16]: 100
- Morningglory plant response rating [7, 15]: 40
- Morningglory plant response rating [7, 16]: 100
- Plant response rating, Morningglory [7, 17]: 10
- Plant response rating, Morningglory [7, 16]: 40
- Pigweed plant response rating [8, 15]: 90
- Pigweed plant response rating [8, 16]: 100
- Plant response rating, Pigweed [8, 17]: 80
- Plant response rating, Pigweed [8, 16]: 100
- Velvetleaf plant response rating [9, 15]: 80
- Velvetleaf plant response rating [9, 16]: 90
- Plant response rating, Velvetleaf [9, 17]: 60
- Plant response rating, Velvetleaf [9, 16]: 80
- Wheat plant response rating [10, 15]: 20
- Wheat plant response rating [10, 16]: 60
- Plant response rating, Wheat [10, 17]: 50
- Plant response rating, Wheat [10, 16]: 70
- Blackgrass plant response rating ([11]; 62 g ai/ha): 70
- Blackgrass plant response rating ([11]; 125 g ai/ha): 70
- Oat, Wild plant response rating (wild oat (Avena fatua); 62 g ai/ha): 20
- Oat, Wild plant response rating (wild oat (Avena fatua); 125 g ai/ha): 50
- Plant response rating, Barnyardgrass ([12]; 125 g ai/ha): 0
- Plant response rating, Barnyardgrass ([12]; 500 g ai/ha): 20
- Plant response rating, Ducksalad ([13]; 125 g ai/ha): 90
- Plant response rating, Ducksalad ([13]; 500 g ai/ha): 90
- Plant response rating, Rice (rice (Oryza sativa); 125 g ai/ha): 0
- Plant response rating, Rice (rice (Oryza sativa); 500 g ai/ha): 40
- Plant response rating, Sedge, Umbrella ([14]; 125 g ai/ha): 90
- Plant response rating, Sedge, Umbrella ([14]; 500 g ai/ha): 90
